We go through 26 molecules from patent publication US20080261977A1, “Pyrimidine Derivatives as Cannabinoid Receptor Modulators” (priority 2004, published 2008).

The target of the experiment is T1, human cannabinoid CB2 receptor (Homo sapiens, UniProt P34972).
T1 construct: expressed in transfected cells; host or cells: Saccharomyces cerevisiae strain MMY23 (cassette integrated at the ura3 locus; chimeric Gpa1/Gαi3)
Briefly: Cannabinoid CB2 receptor agonist activity, yeast (Saccharomyces cerevisiae) cells expressing the receptor, FDGlu fluorescence. Type of experiment: cell-based. Conditions: for Emax: read-out: efficacy (Emax relative to HU210) at the cloned human cannabinoid CB2 receptor. As to the method:
The cannabinoid CB2 receptor agonist activity of the compounds of formula (I) was determined in accordance with the following experimental method.
Yeast (Saccharomyces cerevisiae) cells expressing the human cannabinoid CB2 receptor were generated by integration of an expression cassette into the ura3 chromosomal locus of yeast strain MMY23. This cassette consisted of DNA sequence encoding the human CB2 receptor flanked by the yeast GPD promoter to the 5′ end of CB2 and a yeast transcriptional terminator sequence to the 3′ end of CB2. MMY23 expresses a yeast/mammalian chimeric G-protein alpha subunit in which the C-terminal 5 amino acids of Gpa1 are replaced with the C-terminal 5 amino acids of human Gαi3 (as described in Brown et al. (2000), Yeast 16:11-22). Cells were grown at 30° C. in liquid Synthetic Complete (SC) yeast media (Guthrie and Fink (1991), Methods in Enzymology, Vol. 194) lacking uracil, tryptophan, adenine and leucine to late logarithmic phase (approximately 6 OD600/ml).
Agonists were prepared as 10 mM stocks in DMSO. EC50 values (the concentration required to produce 50% maximal response) were estimated using dilutions of between 3- and 5-fold (BiomekFX, Beckman) into DMSO. Agonist solutions in DMSO (1% final assay volume) were transferred into black, clear bottom, microtitre plates from NUNC (96- or 384-well). Cells were suspended at a density of 0.2 OD600/ml in SC media lacking histidine, uracil, tryptophan, adenine and leucine and supplemented with 10 mM 3-aminotriazole, 0.1M sodium phosphate pH 7.0, and […] fluorescein di-β-D-glucopyranoside (FDGlu). This mixture (50 ul per well for 384-well plates, 200 ul per well for 96-well plates) was added to agonist in the assay plates (Multidrop 384, Labsystems). After incubation at 30° C. for 24 hours, fluorescence resulting from degradation of FDGlu to fluorescein due to exoglucanase, an endogenous yeast enzyme produced during agonist-stimulated cell growth, was determined using a Spectrofluor microtitre plate reader (Tecan; excitation wavelength: 485 nm; emission wavelength: 535 nm). Fluorescence was plotted against compound concentration and iteratively curve fitted using a four parameter fit to generate a concentration effect value. Efficacy (Emax) was calculated from the equation
Emax=Max[compound X]−Min[compound X]/Max[HU210]−Min[HU210]×100%
where Max[compound X] and Min[compound X] are the fitted maximum and minimum respectively from the concentration effect curve for compound X, and Max[HU210] and Min[HU210] are the fitted maximum and minimum respectively from the concentration effect curve for (6aR,10aR)-3-1,1′-Dimethylheptyl)-6a,7,10,10a-tetrahydro-1-hydroxy-6,6-dimethyl-6H-dibenzo[b,d]pyran-9-methanol (HU210; available from Tocris). Equieffective molar ratio (EMR) values were calculated from the equation
Where EC50[compound X] is the EC50 of compound X and EC50[HU210] is the EC50 of HU210.

The mark [1] stands for this setting: yeast agonist assay, read-out: EC50 at the cloned human cannabinoid CB2 receptor.

Counter-ions that a name gives are not always drawn. Like-named read-outs stand apart in the source and are kept apart here. A value given as a limit tells only on which side of the number the result lay.

T1 sequence (P34972 whole entry): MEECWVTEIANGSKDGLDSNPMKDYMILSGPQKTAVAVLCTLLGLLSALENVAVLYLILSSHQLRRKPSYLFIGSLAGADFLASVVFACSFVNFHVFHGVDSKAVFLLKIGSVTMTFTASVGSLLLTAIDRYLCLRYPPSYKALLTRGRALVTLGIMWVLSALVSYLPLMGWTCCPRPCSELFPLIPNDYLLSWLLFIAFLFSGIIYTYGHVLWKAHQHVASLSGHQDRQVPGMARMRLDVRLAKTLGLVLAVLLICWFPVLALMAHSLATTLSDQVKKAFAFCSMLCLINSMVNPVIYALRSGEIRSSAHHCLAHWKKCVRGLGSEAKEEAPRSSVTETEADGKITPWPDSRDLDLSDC

On to `CC(C)CCNCc1cnc(Nc2cccc(Cl)c2)nc1C(F)(F)F` [Example 24, (3-Chlorophenyl)-{5-[(3-methylbutylamino)-methyl]-4-trifluoromethyl-pyrimidin-2-yl}-amine,formate], for which the half-maximal effective concentration (EC50) under setting [1] is less than 300 nM. The maximal effect (Emax) (yeast agonist assay) was more than 50%.

Consider `Fc1cccc(Nc2ncc(CN3CCOCC3)c(C(F)(F)F)n2)c1` [Example 56, (3-Fluorophenyl)-(5-morpholin-4-ylmethyl-4-trifluoromethyl-pyrimidin-2-yl)-amine], for which the Emax is more than 50%. The EC50 under setting [1] was 300 to 1000 nM.

Consider `CC(C)(C)CNCc1cnc(Nc2cccc(Cl)c2)nc1C(F)(F)F` [Example 20, (3-Chlorophenyl)-{5-[(2,2-dimethylpropylamino)-methyl]-4-trifluoromethyl-pyrimidin-2-yl}-amine], for which the EC50 was less than 300 nM and the maximum response (Emax) is more than 50%.

With `COCCNCc1cnc(Nc2cccc(Cl)c2)nc1C(C)C` [Example 9, (3-Chloro-phenyl)-{4-isopropyl-5-[(2-methoxy-ethylamino)-methyl]-pyrimidin-2-yl}-amineformate], under setting [1], the 50% effective concentration (EC50) is less than 300 nM. Further, where the note is “yeast agonist assay”, the Emax is more than 50%.

Regarding `CC(C)c1nc(Nc2cccc(Cl)c2)ncc1CNCC1CCCC1` [Example 8, (3-Chloro-phenyl)-{5-[(cyclopentylmethyl-amino)-methyl]-4-isopropyl-pyrimidin-2-yl}-amine hydrochloride], the EC50 under setting [1] is less than 300 nM. The Emax (yeast agonist assay) was more than 50%.

For `FC(F)(F)c1nc(Nc2cccc(Cl)c2)ncc1CNCc1cccnc1` [Example 31, (3-Chlorophenyl)-(5-{[(pyridin-3-ylmethyl)-amino]-methyl}-4-trifluoromethyl-pyrimidin-2-yl}-amine,formate], under setting [1], the EC50 is less than 300 nM. Moreover, the Emax (yeast agonist assay) is more than 50%.

As for `CCCNCc1cnc(Nc2cccc(Cl)c2)nc1C(F)(F)F` [Example 19, (3-Chlorophenyl)-(5-propylaminomethyl-4-trifluoromethyl-pyrimidin-2-yl)-amine,formate], under setting [1], the concentration for a half-maximal effect (EC50) is less than 300 nM. Moreover, the maximum response (Emax) (yeast agonist assay) is more than 50%.

In the case of `Fc1ccc(Nc2ncc(CNCC3CC3)c(C(F)(F)F)n2)cc1Cl` [Example 13, (3-Chloro-4-fluoro-phenyl)-{5-[(cyclopropylmethyl-amino)-methyl]-4-trifluoromethyl-pyrimidin-2-yl}-amine hydrochloride], the EC50 is less than 300 nM and the Emax was more than 50%.

Turning to `CC(C)c1nc(Nc2cccc(Cl)c2)ncc1CNC1CCC1` [Example 98, (3-Chloro-phenyl)-{5-[(cyclobutylamino)-methyl]-4-isopropyl-pyrimidin-2-yl}-amine hydrochloride], under setting [1], the EC50 is less than 300 nM. For the same molecule, the maximal effect (Emax) (yeast agonist assay) is more than 50%.

As to `CC(C)CNCc1cnc(Nc2cccc(Cl)c2)nc1C1CC1` [Example 5, (3-Chloro-phenyl)-[4-cyclopropyl-5-(isobutylamino-methyl)-pyrimidin-2-yl]-amine], the concentration giving a half-maximal response (EC50) under setting [1] was less than 300 nM. Moreover, where the note is “yeast agonist assay”, the maximal effect (Emax) was more than 50%.

Take `FC(F)(F)c1nc(Nc2ccc(Cl)cc2Cl)ncc1CNC1CC1` [Example 30, (2,4-Dichlorophenyl)-(5-cyclopropylaminomethyl-4-trifluoromethyl-pyrimidin-2-yl)-amine]: the 50% effective concentration (EC50) is less than 300 nM and the maximal effect (Emax) is more than 50%.

`FC(F)(F)c1nc(Nc2ccc(Cl)cc2Cl)ncc1CN1CCOCC1` [Example 35, (2,4-Dichlorophenyl)-(5-morpholin-4-ylmethyl-4-trifluoromethyl-pyrimidin-2-yl)-amine]: the EC50 is less than 300 nM and the Emax is more than 50%.

In the case of `FC(F)(F)c1nc(Nc2cccc(Cl)c2)ncc1CNC1CCC1` [Example 21, (3-Chlorophenyl)-(5-cyclobutylaminomethyl-4-trifluoromethyl-pyrimidin-2-yl)-amine], the EC50 was less than 300 nM and the Emax is more than 50%.

Turning to `N#Cc1cccc(Nc2ncc(CNC3CC3)c(C(F)(F)F)n2)c1` [Example 58, (3-Cyanophenyl)-(5-cyclopropylaminomethyl-4-trifluoromethyl-pyrimidin-2-yl)-amine,formate], the Emax is more than 50%. Besides, the concentration for a half-maximal effect (EC50) under setting [1] lay within 300 to 1000 nM.

Turning to `FC(F)(F)c1nc(Nc2cccc(Cl)c2)ncc1CNCCc1ccccc1` [Example 45, (3-Chlorophenyl)-[5-(phenethylamino-methyl)-4-trifluoromethyl-pyrimidin-2-yl]-amine, formate], the Emax is more than 50%. Also, under setting [1], the concentration giving a half-maximal response (EC50) is 300 to 1000 nM.

With `CC(C)c1nc(Nc2cccc(Cl)c2)ncc1CNCC1CC1` [Example 7, (3-Chloro-phenyl)-{5-[(cyclopropylmethyl-amino)-methyl]-4-isopropyl-pyrimidin-2-yl}-amine hydrochloride], the EC50 under setting [1] is less than 300 nM. Moreover, the maximum response (Emax) (yeast agonist assay) was more than 50%.

For the molecule `CC(NC1CC1)c1cnc(Nc2cccc(F)c2)nc1C(F)(F)F` (stereo not shown) [Example 86, (3-Fluorophenyl)-[5-(1-cyclopropylamino-ethyl)-4-trifluoromethyl-pyrimidin-2-yl]-amine], the half-maximal effective concentration (EC50) is less than 300 nM and the Emax is more than 50%.

On to `FC(F)(F)c1nc(Nc2cccc(Cl)c2)ncc1CN1CCCC1` [Example 40, (3-Chlorophenyl)-(5-pyrrolidin-1-ylmethyl-4-trifluoromethyl-pyrimidin-2-yl)-amine, formate], for which the maximal response (Emax) was more than 50%. For the same molecule, under setting [1], the EC50 was 300 to 1000 nM.

As to `CC(C)(C)c1nc(Nc2cccc(Cl)c2)ncc1CNCc1ccc(F)cc1` [Example 100, (4-tert-Butyl-5-[(4-fluoro-benzylamino)-methyl]-pyrimidin-2-yl}-(3-chloro-phenyl)-amine hydrochloride], the concentration for a half-maximal effect (EC50) under setting [1] was less than 300 nM. Besides, the Emax (yeast agonist assay) was more than 50%.

With `FC(F)(F)c1nc(Nc2cccc(Cl)c2)ncc1CNCCCc1ccccc1` [Example 46, (3-Chlorophenyl)-[5-(phenpropylamino-methyl)-4-trifluoromethyl-pyrimidin-2-yl]-amine, formate], the Emax is more than 50%. Besides, the concentration for a half-maximal effect (EC50) under setting [1] was in the range of 300 to 1000 nM.

On to `CC(NCC1CCOCC1)c1cnc(Nc2cccc(Cl)c2)nc1C(F)(F)F` (stereo not shown) [Example 88, (3-Chlorophenyl)-(5-{1-[(tetrahydro-pyran-4-ylmethyl)-amino]-ethyl}-4-trifluoromethyl-pyrimidin-2-yl)-amine, formate], for which the concentration for a half-maximal effect (EC50) under setting [1] was less than 300 nM. In addition, the Emax (yeast agonist assay) was more than 50%.

On to `CC(C)(C)c1nc(Nc2cccc(Cl)c2)ncc1CNCC1CCOCC1` [Example 99, (4-tert-Butyl-5-{[(tetrahydro-pyran-4-ylmethyl)-amino]-methyl}-pyrimidin-2-yl)-(3-chloro-phenyl)-aminehydrochloride], for which the concentration giving a half-maximal response (EC50) under setting [1] was less than 300 nM. Also, the Emax (yeast agonist assay) was more than 50%.

For the molecule `CCCCNCc1cnc(Nc2cccc(Cl)c2)nc1C(F)(F)F` [Example 22, (3-Chlorophenyl)-(5-butylaminomethyl-4-trifluoromethyl-pyrimidin-2-yl)-amine,formate], under setting [1], the EC50 is less than 300 nM. Further, for the setting “yeast agonist assay”, the Emax is more than 50%.

As to `COCCNCc1cnc(Nc2cccc(Cl)c2)nc1C(C)(C)C` [Example 101, (4-tert-Butyl-5-[(2-methoxy-ethylamino)-methyl]-pyrimidin-2-yl}-(3-chloro-phenyl)-aminehydrochloride], the Emax was more than 50%. For the same molecule, the EC50 under setting [1] was less than 300 nM.

For `CC(O)CNCc1cnc(Nc2cccc(Cl)c2)nc1C(F)(F)F` (stereo not shown) [Example 52, 1-{[2-(3-Chlorophenylamino)-4-trifluoromethyl-pyrimidin-5-ylmethyl]-amino}-propan-2-ol], the maximum response (Emax) is more than 50%. For the same molecule, under setting [1], the EC50 fell in the range of 300 to 1000 nM.

For `FC(F)(F)c1nc(Nc2cccc(Cl)c2)ncc1CNC[C@H]1CCCO1` [Example 49, (3-Chlorophenyl)-(5-{[[(2R)-tetrahydro-furan-2-ylmethyl]-amino]-methyl}-4-trifluoromethyl-pyrimidin-2-yl)-amine,formate], the Emax is more than 50%. In addition, under setting [1], the concentration giving a half-maximal response (EC50) fell in the range of 300 to 1000 nM.
